Laboratory results: patent US20120010290A1, “Methods of Treating an Overweight or Obese Subject” (priority 2008, published 2012)

Test system: diet-induced obese C57BL/6NTac mice
Assay: Weight loss study in diet-induced obese mice
Assay type: in vivo
Conditions: oral 1.0 mg/kg in 10% gelucire in deionised water, once a day for 7 days; C57BL/6NTac mice on 60% fat diet; after 7 days
Procedure: A weight loss study was conducted in obese mice. The mice in this study were not genetically obese, but prior to and during the study, obesity was induced by a high-fat diet. Twelve week-old C57BL/6NTac mice, maintained on a 60% fat diet prior to and during the study, were separated into two groups, with eight animals per group. Average body weight of the mice was approximately 47 g at the start of the study.
One group was orally administered 1.0 mg/kg of compound H in 10% gelucire in deionised water, and one group was administered 10% gelucire in deionised water (vehicle). Compound H is as follows:
Mice received administrations once a day for 7 days. After 7 days, the average weight loss of mice administered compound H was 13.2%.

## CCN(CC)C/C=C\c1ccccc1S(=O)(=O)Nc1ccc2c(c1C(=O)O)CCCC2 [compound H]
  average weight loss: 13.2%
